# In patent US20240262832A1, “SMALL MOLECULE MODULATORS OF GLUCOCEREBROSIDASE ACTIVITY AND USES THEREOF” (Vanqua Bio, Inc., priority 2021, published 2024):
# Molecular target: T1, GCase (Homo sapiens, UniProt P04062)
# T1 construct: endogenous in cells; host or cells: HeLa cells
# T1 sequence (P04062 40-536): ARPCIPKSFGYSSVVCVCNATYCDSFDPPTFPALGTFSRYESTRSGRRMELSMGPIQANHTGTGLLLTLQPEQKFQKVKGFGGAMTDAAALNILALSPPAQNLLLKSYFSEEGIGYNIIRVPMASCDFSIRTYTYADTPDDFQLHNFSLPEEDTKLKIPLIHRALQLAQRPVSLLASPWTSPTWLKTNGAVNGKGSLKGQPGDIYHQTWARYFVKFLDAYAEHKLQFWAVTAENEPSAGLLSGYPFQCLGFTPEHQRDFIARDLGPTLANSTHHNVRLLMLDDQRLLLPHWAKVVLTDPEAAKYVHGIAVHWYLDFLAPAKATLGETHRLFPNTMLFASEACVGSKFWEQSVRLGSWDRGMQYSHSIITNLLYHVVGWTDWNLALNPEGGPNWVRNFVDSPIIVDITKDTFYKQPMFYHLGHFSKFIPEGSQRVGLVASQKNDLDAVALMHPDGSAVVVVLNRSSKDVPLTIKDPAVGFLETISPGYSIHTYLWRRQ
# Assay: activation of GCase in a live cell PFB assay in HELA cells
# Assay type: cell-based
row,Structure (SMILES),EC50 [µM]
1,"O=C(c1ccc2cc[nH]c2c1)N1CCC(Oc2ccc(C(F)(F)F)nc2)CC1 [Compound 314, (1H-Indol-6-yl)(4-((6-(trifluoromethyl)pyridin-3-yl)oxy)piperidin-1-yl)methanone]",50 to 100
2,"O=C(c1ccc2cc[nH]c2c1)N1CCC(Oc2cc(C(F)(F)F)ccn2)CC1 [Compound 322, (1H-Indol-6-yl)(4-((4-(trifluoromethyl)pyridin-2-yl)oxy)piperidin-1-yl)methanone]",50 to 100
3,"O=C(c1ccc2cc[nH]c2c1)N1CCC(Oc2ccc(C(F)(F)F)cn2)CC1 [Compound 333, (1H-Indol-6-yl)(4-((5-(trifluoromethyl)pyridin-2-yl)oxy)piperidin-1-yl)methanone]",10 to 50
4,"O=C(Cc1csc(-c2ccccc2)n1)N1CCC(COCc2ccccc2)CC1 [Compound 335, 1-{4-[(Benzyloxy)methyl]piperidin-1-yl}-2-(2-phenyl-1,3-thiazol-4-yl)ethan-1-one]",10 to 50
5,"O=C(Cc1csc(-c2ccccc2)n1)N1CCC(OCCc2ccccc2)CC1 [Compound 336, 2-(2-Phenyl-1,3-thiazol-4-yl)-1-[4-(2-phenylethoxy)piperidin-1-yl]ethan-1-one]",10 to 50
6,CCC(C)(C)C(=O)N1CCC(COc2cccc(C(F)(F)F)n2)CC1 [Compound 350],50 to 100
7,CC(C)(C)CC(=O)N1CCC(COc2cccc(C(F)(F)F)n2)CC1 [Compound 351],10 to 50
8,Cc1cccnc1OCC1CCN(C(=O)Cc2cn(C)c3ccccc23)CC1 [Compound 359],10 to 50
9,Cc1cccnc1OCC1CCN(C(=O)C2(c3ccccc3)CCOCC2)CC1 [Compound 360],10 to 50
10,CC(C)Sc1ccc(CC(=O)N2CCC(Oc3ncccc3C#N)CC2)cc1 [Compound 369],10 to 50
11,N#Cc1cccnc1OC1CCN(C(=O)C23CC4CC(CC(C4)C2)C3)CC1 [Compound 375],10 to 50
12,O=C(NCCc1ccccc1)N1CCC(Oc2ccc(C(F)(F)F)cn2)CC1 [Compound 379],> 100
13,O=C(N1CCC(Oc2ccc(C(F)(F)F)cn2)CC1)C1(c2ccccc2)CCOCC1 [Compound 381],10 to 50
14,CC(C)Sc1ccc(CC(=O)N2CCC(Oc3ccc(C(F)(F)F)cn3)CC2)cc1 [Compound 383],10 to 50
15,O=C(CCCc1ccccc1)N1CCC(Oc2ccc(C(F)(F)F)cn2)CC1 [Compound 386],10 to 50
16,O=C(C(c1ccccc1)c1ccccc1)N1CCC(Oc2ccc(C(F)(F)F)cn2)CC1 [Compound 387],10 to 50

row,Structure (SMILES),EC50 [µM]
1,CCOc1ccccc1C(=O)N1CCC(Oc2ccc(C(F)(F)F)cn2)CC1 [Compound 391],10 to 50
2,"O=C(Cc1csc(-c2ccccc2)n1)N1CCC(Oc2ccnc(C(F)(F)F)c2)CC1 [Compound 399, 2-(2-Phenyl-1,3-thiazol-4-yl)-1-(4-{[2-(trifluoromethyl)pyridin-4-yl]oxy}piperidin-1-yl)ethan-1-one]",10 to 50
3,"O=C(Cc1csc(-c2ccccc2)n1)N1CCC(Oc2cccnc2C(F)(F)F)CC1 [Compound 400, 2-(2-Phenyl-1,3-thiazol-4-yl)-1-(4-{[2-(trifluoromethyl)pyridin-3-yl]oxy}piperidin-1-yl)ethan-1-one]",10 to 50
4,"O=C(Cc1csc(-c2ccccc2)n1)N1CCC(Oc2ncccc2C(F)(F)F)CC1 [Compound 401, 2-(2-Phenyl-1,3-thiazol-4-yl)-1-(4-{[3-(trifluoromethyl)pyridin-2-yl]oxy}piperidin-1-yl)ethan-1-one]",10 to 50
5,"O=C(Cc1csc(-c2ccccc2)n1)N1CCC(Oc2cccc(C(F)(F)F)n2)CC1 [Compound 402, 2-(2-Phenyl-1,3-thiazol-4-yl)-1-(4-{[6-(trifluoromethyl)pyridin-2-yl]oxy}piperidin-1-yl)ethan-1-one]",10 to 50
6,"O=C(N1CCC(Oc2ccccc2)CC1)C1(c2ccccc2)CCCC1 [Compound 404, 4-Phenoxy-1-(1-phenylcyclopentanecarbonyl)piperidine]",10 to 50
7,"O=C(c1ccc2c(c1)CCCC2)N1CCC(Oc2ccccc2)CC1 [Compound 407, 4-Phenoxy-1-(5,6,7,8-tetrahydronaphthalene-2-carbonyl)piperidine]",10 to 50
8,"Cc1cccc2cc(C(=O)N3CCC(Oc4ccccc4)CC3)oc12 [Compound 409, 1-(7-Methyl-1-benzofuran-2-carbonyl)-4-phenoxypiperidine]",10 to 50
9,"O=C(c1cnn(-c2ccccc2)n1)N1CCC(Oc2ccccc2)CC1 [Compound 410, 4-Phenoxy-1-(2-phenyl-2H-1,2,3-triazole-4-carbonyl)piperidine]",10 to 50
10,"c1ccc(OC2CCN(c3cnc4ccccc4n3)CC2)cc1 [Compound 414, 2-(4-Phenoxypiperidin-1-yl)quinoxaline]",10 to 50
11,"O=C(c1ccc2cc[nH]c2c1)N1CCC(OCc2ccccc2)CC1 [Compound 415, 6-[4-(Benzyloxy)piperidine-1-carbonyl]-1H-indole]",50 to 100
12,"O=C(c1ccc2cc[nH]c2c1)N1CCC(COc2ccccc2)CC1 [Compound 416, 6-[4-(Phenoxymethyl)piperidine-1-carbonyl]-1H-indole]",10 to 50
13,"c1ccc(COC2CCN(c3cnc4ccccc4n3)CC2)cc1 [Compound 417, 2-[4-(Benzyloxy)piperidin-1-yl]quinoxaline]",10 to 50
14,"c1ccc(OCC2CCN(c3cnc4ccccc4n3)CC2)cc1 [Compound 418, 2-[4-(Phenoxymethyl)piperidin-1-yl]quinoxaline]",10 to 50
15,O=C(c1cn(CC2CCCCC2)nn1)N1CCC(OCc2ccccc2)CC1 [Compound 419],> 100

# The remaining lines, values ahead:
row,EC50 [µM],Structure (SMILES)
1,10 to 50,"FC(F)Cn1ncc2ncc(N3CCC(COc4ncccc4C(F)(F)F)CC3)nc21 [Compound 313, 1-(2,2-Difluoroethyl)-6-(4-(((3-(trifluoromethyl)pyridin-2-yl)oxy)methyl)piperidin-1-yl)-1H-pyrazolo[3,4-b]pyrazine]"
2,< 10,"FC(F)Cn1ncc2ncc(N3CCC(COc4ccnc(C(F)(F)F)c4)CC3)nc21 [Compound 315, 1-(2,2-Difluoroethyl)-6-(4-(((2-(trifluoromethyl)pyridin-4-yl)oxy)methyl)piperidin-1-yl)-1H-pyrazolo[3,4-b]pyrazine]"
3,< 10,"FC(F)Cn1ncc2ncc(N3CCC(COc4ccc(C(F)(F)F)nc4)CC3)nc21 [Compound 316, 1-(2,2-Difluoroethyl)-6-(4-(((6-(trifluoromethyl)pyridin-3-yl)oxy)methyl)piperidin-1-yl)-1H-pyrazolo[3,4-b]pyrazine]"
4,10 to 50,"FC(F)Cn1ncc2ncc(N3CCC(COc4ccc(C(F)(F)F)cn4)CC3)nc21 [Compound 317, 1-(2,2-Difluoroethyl)-6-(4-(((5-(trifluoromethyl)pyridin-2-yl)oxy)methyl)piperidin-1-yl)-1H-pyrazolo[3,4-b]pyrazine]"
5,10 to 50,"O=C(c1ccc2cc[nH]c2c1)N1CCC(Oc2ccncc2C(F)(F)F)CC1 [Compound 318, (1H-Indol-6-yl)(4-((3-(trifluoromethyl)pyridin-4-yl)oxy)piperidin-1-yl)methanone]"
6,10 to 50,"O=C(c1ccc2cc[nH]c2c1)N1CCC(Oc2ccnc(C(F)(F)F)c2)CC1 [Compound 319, (1H-Indol-6-yl)(4-((2-(trifluoromethyl)pyridin-4-yl)oxy)piperidin-1-yl)methanone]"
7,10 to 50,"O=C(c1ccc2cc[nH]c2c1)N1CCC(Oc2ncccc2C(F)(F)F)CC1 [Compound 321, (1H-Indol-6-yl)(4-((3-(trifluoromethyl)pyridin-2-yl)oxy)piperidin-1-yl)methanone]"
8,< 10,"FC(F)Cn1ncc2ncc(N3CCC(COc4cccnc4C(F)(F)F)CC3)nc21 [Compound 323, 3-({1-[1-(2,2-Difluoroethyl)-1H-pyrazolo[3,4-b]pyrazin-6-yl]piperidin-4-yl}methoxy)-2-(trifluoromethyl)pyridine]"
9,10 to 50,"FC(F)Cn1ncc2ncc(N3CCC(COc4cc(C(F)(F)F)ccn4)CC3)nc21 [Compound 324, 2-({1-[1-(2,2-Difluoroethyl)-1H-pyrazolo[3,4-b]pyrazin-6-yl]piperidin-4-yl}methoxy)-4-(trifluoromethyl)pyridine]"
10,10 to 50,"FC(F)Cn1ncc2ncc(N3CCC(Oc4cc(C(F)(F)F)ccn4)CC3)nc21 [Compound 326, 1-(2,2-Difluoroethyl)-6-(4-((4-(trifluoromethyl)pyridin-2-yl)oxy)piperidin-1-yl)-1H-pyrazolo[3,4-b]pyrazine]"
11,10 to 50,"O=C(c1ccc2cc[nH]c2c1)N1CCC(Oc2cccc(C(F)(F)F)n2)CC1 [Compound 327, (1H-Indol-6-yl)(4-((6-(trifluoromethyl)pyridin-2-yl)oxy)piperidin-1-yl)methanone]"
12,10 to 50,"FC(F)Cn1ncc2ncc(N3CCC(COc4cccc(C(F)(F)F)n4)CC3)nc21 [Compound 328, 2-({1-[1-(2,2-Difluoroethyl)-1H-pyrazolo[3,4-b]pyrazin-6-yl]piperidin-4-yl}methoxy)-6-(trifluoromethyl)pyridine]"
13,< 10,"FC(F)Cn1ncc2ncc(N3CCC(OC4CN(c5cccnc5C(F)(F)F)C4)CC3)nc21 [Compound 329, 1-(2,2-Difluoroethyl)-6-(4-((1-(2-(trifluoromethyl)pyridin-3-yl)azetidin-3-yl)oxy)piperidin-1-yl)-1H-pyrazolo[3,4-b]pyrazine]"
14,10 to 50,"N#Cc1cc(C(F)(F)F)cnc1OC1CCN(C(=O)c2ccc3cc[nH]c3c2)CC1 [Compound 332, 2-((1-(1H-Indole-6-carbonyl)piperidin-4-yl)oxy)-5-(trifluoromethyl)nicotinonitrile]"
15,< 10,N#Cc1cccnc1OC1CCN(C(=O)C2(c3ccc(Cl)cc3)CCCC2)CC1 [Compound 370]
